{"source": "patent US8992897B2", "about": "“Skin lightening compositions” (ELC Management LLC, priority 2010, dated 2015)", "key": {"skin": {"tested_on": "skin", "details": "4% hydroquinone, another study"}, "B16F10 melanoma cells [1]": {"tested_on": "B16F10 melanoma cells", "assay": "pH change in B16F10 melanoma cells by DAMP accumulation / FITC anti-DNP fluorescence", "format": "cell-based, mouse", "procedure": "The protocol to detect changes in pH followed that of Cheli, Y. et al. B16F10 melanoma cells were seeded in glass bottom dishes and maintained in DMEM medium with 10% FBS. […] Cells were washed with fresh culture medium and incubated for 20 minutes in the presence of 30 μM DAMP ([3-(2,4-dinitroanilino)3′amino-N-methyldipropylamine], a weak base which accumulates in acidic compartments). Cells were fixed in 3% PFA for 20 minutes at room temperature. The glass bottom dishes were washed with PBS, incubated 10 minutes in NH4Cl//PBS at room temperature and permeabilized in PBS with 0.1% Triton-100 for two minutes on ice. The dishes were then incubated with a green reflecting fluoroscein isothiocyanate (FITC)-labeled rabbit anti-dinitrophenyl (DNP) antibody (1/50 PBS plus 1% BSA) for one hours at 37° C. The intensity of fluorescence indicated the accumulation of DAMP. Increased intensity of the fluorescence can be related to lowered pH. (Cheli, Y., Luciani, F., Khaled, M., Beuret, L., Billie, K., Gounon, Pl, Ortonne, J. P., Bertolotto, C., and Ballotti, R. Alpha-MSH and cyclic-AMP elevating agents control melanosome pH through a PKA-independent mechanism. J. Biol. Chem., 284:18699-18706, 2009).\nIt has been previously shown that forskolin induces an alkalinization of the melanosome milieu."}, "tyrosinase mRNA": {"tested_on": "tyrosinase mRNA", "assay": "Tyrosinase mRNA level by RT-PCR in B16F10 cells", "details": "B16F10 mouse melanoma cells"}, "MITF mRNA": {"tested_on": "MITF mRNA", "assay": "MITF mRNA level by RT-PCR in B16F10 cells", "details": "B16F10 mouse melanoma cells"}, "tyrosinase": {"target": "T1, tyrosinase (Mus musculus, UniProt P11344)", "T1 sequence (P11344 19-533)": "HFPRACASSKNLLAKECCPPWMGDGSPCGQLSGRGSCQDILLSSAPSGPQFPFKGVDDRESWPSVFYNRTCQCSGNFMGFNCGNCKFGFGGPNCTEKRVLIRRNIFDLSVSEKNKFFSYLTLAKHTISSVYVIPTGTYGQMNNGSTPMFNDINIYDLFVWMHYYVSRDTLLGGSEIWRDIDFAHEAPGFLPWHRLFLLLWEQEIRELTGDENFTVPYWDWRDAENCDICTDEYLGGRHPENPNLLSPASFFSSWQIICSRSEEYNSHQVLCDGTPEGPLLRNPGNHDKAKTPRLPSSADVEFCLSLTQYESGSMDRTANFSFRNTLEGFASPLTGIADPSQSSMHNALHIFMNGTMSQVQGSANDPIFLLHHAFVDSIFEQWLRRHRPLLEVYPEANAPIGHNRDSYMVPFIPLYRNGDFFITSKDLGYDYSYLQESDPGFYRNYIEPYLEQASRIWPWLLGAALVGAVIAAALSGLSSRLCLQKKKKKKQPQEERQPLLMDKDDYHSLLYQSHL", "assay": "Tyrosinase activity of B16F10 cell extracts with L-DOPA as substrate"}, "human tyrosinase": {"target": "T2, human tyrosinase (Homo sapiens, UniProt P14679)", "T2 sequence (P14679 19-529)": "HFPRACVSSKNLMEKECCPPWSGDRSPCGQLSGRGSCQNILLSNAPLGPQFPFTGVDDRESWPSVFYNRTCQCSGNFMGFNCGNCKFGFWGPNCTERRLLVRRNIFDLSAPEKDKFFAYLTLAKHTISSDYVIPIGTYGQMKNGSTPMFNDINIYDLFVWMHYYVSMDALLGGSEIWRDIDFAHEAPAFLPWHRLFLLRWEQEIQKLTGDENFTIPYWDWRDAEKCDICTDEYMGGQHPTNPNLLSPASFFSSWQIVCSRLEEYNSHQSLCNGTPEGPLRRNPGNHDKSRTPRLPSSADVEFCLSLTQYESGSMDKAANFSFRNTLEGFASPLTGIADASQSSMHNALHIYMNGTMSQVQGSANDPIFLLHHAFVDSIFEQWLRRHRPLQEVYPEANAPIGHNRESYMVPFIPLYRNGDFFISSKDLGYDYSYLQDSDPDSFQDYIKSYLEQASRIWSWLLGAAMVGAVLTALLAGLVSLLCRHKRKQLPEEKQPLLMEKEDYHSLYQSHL", "details": "test tube assay, extracts from human melanocytes"}, "cultured melanocytes": {"tested_on": "cultured melanocytes", "assay": "Inhibition of melanogenesis in cultured melanocytes"}, "mouse tyrosinase": {"tested_on": "mouse tyrosinase", "assay": "Tyrosinase protein level by Western blot", "details": "Western blots, antibodies specific for mouse tyrosinase"}, "B16F10 melanoma cells [2]": {"tested_on": "B16F10 melanoma cells", "assay": "Melanin content of B16F10 melanoma cells (screening for inhibition of melanogenesis)", "procedure": "B16F10 melanoma cells were incubated for three days with test compounds at various concentrations. The cells were fixed, dried and solubilized, and the melanin content was determined."}}, "note": "Like-named read-outs stand apart in the source and are kept apart here."}
{"compound": "Oc1ccc(O)cc1", "note": "[hydroquinone]", "values": [{"measurement": "lightening factor", "setting": "skin; 3 weeks of treatment", "value": 3.2}, {"measurement": "lightening factor", "setting": "skin; 4 weeks of treatment", "value": 5.0}]}
{"compound": "C=C[C@@]1(C)CC(=O)[C@]2(O)[C@@]3(C)[C@@H](O)CCC(C)(C)[C@@H]3[C@H](O)[C@H](OC(C)=O)[C@@]2(C)O1", "note": "[Forskolin]", "values": [{"measurement": "Average fluorescence per cell ± S.D.", "setting": "B16F10 melanoma cells [1]; 24 hour incubation, 20 μM", "value": "87 ± 15.1"}]}
{"compound": "5- or 6-methoxy-2-{[(4-methoxy-3,5-dimethylpyridin-2-yl)methyl]sulfinyl}-1H-benzimidazole [omeprazole]", "values": [{"measurement": "tyrosinase mRNA level", "setting": "tyrosinase mRNA", "value": "does not change"}, {"measurement": "lowering the pH of melanoma cells (in words)", "setting": "B16F10 melanoma cells [1]; 25 μM and 50 μM, after 4 hours of treatment", "value": "effective at lowering the pH"}, {"measurement": "Average fluorescence per cell ± S.D.", "setting": "B16F10 melanoma cells [1]; 4 hour incubation (first experiment), 50 μM", "value": "145.5 ± 14.5"}, {"measurement": "Average fluorescence per cell ± S.D.", "setting": "B16F10 melanoma cells [1]; 4 hour incubation (second experiment), 25 μM", "value": "124.3 ± 2.5"}, {"measurement": "Average fluorescence per cell ± S.D.", "setting": "B16F10 melanoma cells [1]; 4 hour incubation (second experiment), 50 μM", "value": "133.7 ± 13.3"}, {"measurement": "Average fluorescence per cell ± S.D.", "setting": "B16F10 melanoma cells [1]; 24 hour incubation, 50 μM", "value": "139.3 ± 14.4"}, {"measurement": "Fluorescence intensity / DAMP labeling (in words)", "setting": "B16F10 melanoma cells [1]; exposure of cells for 24 hours", "value": "increased"}, {"measurement": "MITF mRNA level", "setting": "MITF mRNA", "value": "does not change"}, {"measurement": "tyrosinase activity of B16F10 cell extracts", "setting": "tyrosinase", "value": "decreases the tyrosinase activity"}, {"measurement": "concentration required to moderately inhibit human tyrosinase activity", "setting": "human tyrosinase", "value": 250, "unit": "µg/mL"}, {"measurement": "effective concentration to inhibit melanogenesis", "setting": "cultured melanocytes", "value": "5 to 50", "unit": "µg/mL"}, {"measurement": "tyrosinase protein level", "setting": "mouse tyrosinase", "value": "decreases tyrosinase protein level"}, {"measurement": "cytotoxicity", "setting": "B16F10 melanoma cells [2]; B16F10 melanoma cells", "value": "without cytotoxicity"}, {"measurement": "inhibition of melanin synthesis", "setting": "B16F10 melanoma cells [2]; B16F10 melanoma cells", "value": "inhibits melanin synthesis"}, {"measurement": "reducing melanin in the cells (melanin content)", "setting": "B16F10 melanoma cells [2]; B16F10 melanoma cells incubated three days with test compounds at various concentrations", "value": "one of the compounds most potent in reducing melanin"}]}
{"compound": "Cc1nc2c(OCc3ccccc3)cccn2c1CC#N", "note": "[SCH-28080, 2-methyl-8-(phenylmethoxy) imidazo (1,2a) pyridine-3-acetonitrile]", "values": [{"measurement": "inhibition of melanogenesis", "setting": "B16F10 melanoma cells [2]; cultured B16F10 mouse melanoma cells (routine screening)", "value": "equally as efficient as omeprazole"}]}
